The source of these data is patent US11084800B2 (Achillion Pharmaceuticals, Inc., priority 2017, dated 2021).

Where only a bound is given, the exact number is not on record here.

The target in the assay is Human Factor D (Homo sapiens (Human), UniProt P00746). The assay is described as follows: Human Factor D Assay. It is filed as biochemical. The note with it: Factor D inhibition, assay of Example 10; read-out: IC5 (Stars). The gist of the method: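 Thioester substrate Z-L-Lys-SBz (100 μM) with Ellman's reagent DTNB (100 μM) reports activity of 80 nM human serum-derived enzyme, kinetically at 405 nm over 30 min. Compound preincubated 5 min, room temperature, pH 7.5 Tris/1 M NaCl; IC50 by nonlinear fit of rates.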
Human Factor D, sequence (P00746 26-253): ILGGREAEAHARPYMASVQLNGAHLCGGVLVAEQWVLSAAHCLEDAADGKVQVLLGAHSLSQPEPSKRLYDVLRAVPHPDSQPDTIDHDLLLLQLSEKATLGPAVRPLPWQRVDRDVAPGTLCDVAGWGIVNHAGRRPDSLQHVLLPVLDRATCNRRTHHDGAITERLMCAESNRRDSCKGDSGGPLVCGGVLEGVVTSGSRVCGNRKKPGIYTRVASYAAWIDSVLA
Turning to `CC(=O)c1nn(CC(=O)N2[C@H](C(=O)Nc3nc(Br)ccc3C)C[C@@]3(Cc4nnc(C)o4)C[C@@H]23)c2c(CF)cc(-c3cnc(C)nc3)cc12` [Compound 429, (1R,3S,5R)-2-(2-(3-acetyl-7-(fluoromethyl)-5-(2-methylpyrimidin-5-yl)-1H-indazol-1-yl)acetyl)-N-(6-bromo-3-methylpyridin-2-yl)-5-((5-methyl-1,3,4-oxadiazol-2-yl)methyl)-2-azabicyclo[3.1.0]hexane-3-carboxamide], the IC50 is below 1 µM.
To `CC(=O)c1nn(CC(=O)N2C[C@](C)(F)C[C@H]2C(=O)Nc2nc(Br)ccc2C)c2ccc(-c3cnc(C)nc3)cc12` [Compound 430, (2S,4R)-1-{2-[3-Acetyl-5-(2-methylpyrimidin-5-yl)indazol-1-yl]acetyl}-N-(6-bromo-3-methylpyridin-2-yl)-4-fluoro-4-methylpyrrolidine-2-carboxamide] belongs below 1 µM.
For `Cc1ncc(-c2cc3c(C(N)=O)nn(CC(=O)N4[C@H](C(=O)Nc5nc(Br)c(F)cc5C)C[C@@]5(C)C[C@@H]45)c3c(C)n2)cn1` [Compound 431, 1-(2-((1R,3S,5R)-3-((6-bromo-5-fluoro-3-methylpyridin-2-yl)carbamoyl)-5-methyl-2-azabicyclo[3.1.0]hexan-2-yl)-2-oxoethyl)-7-methyl-5-(2-methylpyrimidin-5-yl)-1H-pyrazolo[3,4-c]pyridine-3-carboxamide] the value was below 1 µM.
To `CC(=O)c1nn(CC(=O)N2C[C@](C)(F)C[C@H]2C(=O)Nc2nc(Br)ccc2C)c2c(C)nc(-c3cnc(C)nc3)cc12` [Compound 432, (2S,4R)-1-(2-(3-acetyl-7-methyl-5-(2-methylpyrimidin-5-yl)-1H-pyrazolo[3,4-c]pyridin-1-yl)acetyl)-N-(6-bromo-3-methylpyridin-2-yl)-4-fluoro-4-methylpyrrolidine-2-carboxamide] belongs below 1 µM.
For `CC(=O)c1nn(CC(=O)N2C[C@](C)(F)C[C@H]2C(=O)Nc2nc(Br)ccc2C)c2c(C)cc(-c3cnc(C)nc3)cc12` [Compound 433, (2S,4R)-1-(2-(3-acetyl-7-methyl-5-(2-methylpyrimidin-5-yl)-1H-indazol-1-yl)acetyl)-N-(6-bromo-3-methylpyridin-2-yl)-4-fluoro-4-methylpyrrolidine-2-carboxamide], the IC50 was below 1 µM.
To `CC(=O)c1nn(CC(=O)N2[C@H](C(=O)NCc3cccc(Cl)c3F)C[C@@]3(Cc4nnc(C)o4)C[C@@H]23)c2c(C)cc(-c3cnc(C)nc3)cc12` [Compound 434, (1R,3S,5R)-2-(2-(3-acetyl-7-methyl-5-(2-methylpyrimidin-5-yl)-1H-indazol-1-yl)acetyl)-N-(3-chloro-2-fluorobenzyl)-5-((5-methyl-1,3,4-oxadiazol-2-yl)methyl)-2-azabicyclo[3.1.0]hexane-3-carboxamide] belongs below 1 µM; to `CC(=O)c1nn(CC(=O)N2[C@H](C(=O)Nc3nc(C(F)(F)F)ccc3C)C[C@@]3(Cc4nnc(C)o4)C[C@@H]23)c2c(C)cc(-c3cnc(C)nc3)cc12` [Compound 435, (1R,3S,5R)-2-(2-(3-acetyl-7-methyl-5-(2-methylpyrimidin-5-yl)-1H-indazol-1-yl)acetyl)-5-((5-methyl-1,3,4-oxadiazol-2-yl)methyl)-N-(3-methyl-6-(trifluoromethyl)pyridin-2-yl)-2-azabicyclo[3.1.0]hexane-3-carboxamide], below 1 µM.
`Cc1ncc(-c2cc3c(C(N)=O)nn(CC(=O)N4C[C@H]5C[C@H]5[C@H]4C(=O)Nc4nc(Br)ccc4C)c3c(C)n2)cn1` [Compound 436, 1-(2-((1R,25,5S)-2-((6-bromo-3-methylpyridin-2-yl)carbamoyl)-3-azabicyclo[3.1.0]hexan-3-yl)-2-oxoethyl)-7-methyl-5-(2-methylpyrimidin-5-yl)-1H-pyrazolo[3,4-c]pyridine-3-carboxamide]: the IC50 is below 1 µM.
